# Values quoted from earlier work in patent US9687466B2, “Use of dianhydrogalactitol and analogs and derivatives thereof to treat glioblastoma multiforme” (DELMAR PHARMACEUTICALS, INC., priority 0212, dated 2017).
# Conditions: cited from earlier work
smiles,measurement,value
O[C@H]([C@H](O)[C@@H](O)CBr)[C@H](O)CBr [dibromodulcitol],absorption by the oral route,rapid and fairly complete
